Experimental findings from patent publication US20240383900A1, “SUBSTITUTED PYRAZOLO [1,5-A]PYRIMIDINE-7-AMINE COMPOUNDS AS CDK INHIBITORS AND THEIR THERAPEUTIC USE” (Carrick Therapeutics Limited, priority 2021, published 2024) are described below.

Like-named read-outs stand apart in the source and are kept apart here.

In general, IC50 refers to the concentration at which inhibition is half-maximal.

For one experiment, the target named is Human CDK7/CycH/MAT1 (Homo sapiens (Human), UniProt P50613). In words: Radiometric protein kinase assay (33PanQinase Activity Assay), CDK7. The conditions noted are these: ATP 3 μM. It is filed as biochemical.
Human CDK7/CycH/MAT1, sequence (P50613 whole entry): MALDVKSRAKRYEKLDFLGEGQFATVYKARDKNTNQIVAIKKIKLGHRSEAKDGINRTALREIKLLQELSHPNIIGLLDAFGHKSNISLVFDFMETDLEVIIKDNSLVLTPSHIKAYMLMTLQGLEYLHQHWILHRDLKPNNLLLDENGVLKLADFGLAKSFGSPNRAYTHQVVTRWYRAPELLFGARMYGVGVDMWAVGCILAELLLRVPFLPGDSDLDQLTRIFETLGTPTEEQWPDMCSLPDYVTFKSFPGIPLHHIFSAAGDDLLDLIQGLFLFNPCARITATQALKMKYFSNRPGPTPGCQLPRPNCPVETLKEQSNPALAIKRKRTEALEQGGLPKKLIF
Human CDK7/CycH/MAT1, sequence (P51946 whole entry partner): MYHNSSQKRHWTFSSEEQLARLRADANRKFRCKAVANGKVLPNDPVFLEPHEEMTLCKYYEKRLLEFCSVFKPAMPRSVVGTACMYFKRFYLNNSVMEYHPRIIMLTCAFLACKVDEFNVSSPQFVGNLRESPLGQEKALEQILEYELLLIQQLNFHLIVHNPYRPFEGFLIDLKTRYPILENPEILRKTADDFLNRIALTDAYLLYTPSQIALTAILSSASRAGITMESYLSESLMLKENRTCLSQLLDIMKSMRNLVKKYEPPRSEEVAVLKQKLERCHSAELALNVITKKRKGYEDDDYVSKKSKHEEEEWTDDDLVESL
Human CDK7/CycH/MAT1, sequence (P51948 whole entry partner): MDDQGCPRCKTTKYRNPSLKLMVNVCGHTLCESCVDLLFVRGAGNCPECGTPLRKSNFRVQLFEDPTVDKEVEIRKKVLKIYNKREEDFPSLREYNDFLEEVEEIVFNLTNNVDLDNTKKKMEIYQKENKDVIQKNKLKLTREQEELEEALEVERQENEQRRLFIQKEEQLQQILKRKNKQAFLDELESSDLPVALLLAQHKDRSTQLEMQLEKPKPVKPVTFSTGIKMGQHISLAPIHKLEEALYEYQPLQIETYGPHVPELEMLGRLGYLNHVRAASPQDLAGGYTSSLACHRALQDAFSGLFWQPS
A further experiment addresses Human CDK12 wt/CycK (Homo sapiens (Human), UniProt Q9NYV4). Briefly: Radiometric protein kinase assay (33PanQinase Activity Assay), CDK12. Format: biochemical. As to conditions: for CDK7/CDK12: ratio of CDK7 IC50 to CDK12 IC50, greater than 1 indicates selectivity for CDK12. The procedure, abridged:
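Radiometric 33P assay: ATP, test compound (in 10% DMSO) and premixed substrate/enzyme incubated 60 min at 30 °C, stopped with 2% H3PO4. 33Pi incorporation counted by scintillation; least-squares curve fit.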

In experiment [1] the test system is A673 cells. Briefly: Cytotoxicity in A673 cells (Cell Titer Glo viability). Format: cell-based. As to conditions: for Ratio of Biochemical Potency:Cellular Potency: CDK12 IC50 / A673 IC50; for IC50: Homo sapiens. A digest of the protocol: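 Cells plated at 1.2×10^5 per well in DMEM+10% FBS, 24 h, then compound series ± MLN4924 (30 nM final) in 0.1% DMSO for 72 h. Viability by Cell Titer Glo luminescence, normalised to vehicle (100%) and 0.1% Triton x-100 (0%); MLN4924 curves normalised to MLN4924-treated controls.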
For orientation: In ATP-based viability assays light output follows the ATP content of the culture.

The test system of experiment [2] is A673 cells. In words: A673 cytotoxic potency shift in the presence of MLN4924 (cyclin K degrader activity). It is filed as cell-based. The conditions noted are these: 30 nM MLN4924, 72 hours. As for the experimental part:
Inhibition of cell viability by test compounds was assessed in A673 cells (ATCC CRL-1598) and the compound mode of action was attributed to a “molecular-glue”/cyclin K-degradation mechanism by probing for a loss of compound potency in the presence of the NEDD8-activating enzyme inhibitor, MLN4924.
Cells were plated in 96-well plates at a density of […] viable cells per well in 200 μL fully supplemented growth medium (DMEM+10% heat inactivated foetal bovine serum) and incubated for 24 hours in standard tissue culture conditions. Compounds, including MLN4924, were solubilised in DMSO and then diluted in fully supplemented growth medium at 2× their final assay concentration such that the final DMSO concentration was 0.1%. Growth medium in the assay plates was replaced with 50 μL of growth medium containing 2×MLN4924 (final assay concentration: 30 nM, where tested) or vehicle only and 50 μL of growth medium containing a 2× compound concentration series or vehicle only such that each compound was at 1× final assay concentration in 100 μL.
Cells were then incubated for 72 hours in standard tissue culture conditions before viability was assessed using 50 μL Cell Titer Glo reagent (Promega) per well and luminescence measured on an EnVision plate reader. Data were normalised to vehicle control (100%) and cells treated with 0.1% Triton x-100 for 1 hour before viability measurement (0%; full cell kill). IC50 values were determined using a semi-logistic curve fit with parameters “top” fixed at 100% and “bottom” at or below 0%. Viability curves generated in the presence of MLN4924 were normalised and fixed to controls treated with MLN4924.

The mark [3] stands for this setting: ATP 0.3 μM, read-out: CDK12 IC50.
The mark [4] stands for this setting: read-out: CKD12 Biochemical Potency IC50.
The mark [5] stands for this setting: A673, read-out: Cellular Potency IC50 (nM) (in A673 cells).
Setting [6] is: A673 cells, 72 hours, read-out: A673 IC50.

Human CDK12 wt/CycK, sequence (Q9NYV4 whole entry): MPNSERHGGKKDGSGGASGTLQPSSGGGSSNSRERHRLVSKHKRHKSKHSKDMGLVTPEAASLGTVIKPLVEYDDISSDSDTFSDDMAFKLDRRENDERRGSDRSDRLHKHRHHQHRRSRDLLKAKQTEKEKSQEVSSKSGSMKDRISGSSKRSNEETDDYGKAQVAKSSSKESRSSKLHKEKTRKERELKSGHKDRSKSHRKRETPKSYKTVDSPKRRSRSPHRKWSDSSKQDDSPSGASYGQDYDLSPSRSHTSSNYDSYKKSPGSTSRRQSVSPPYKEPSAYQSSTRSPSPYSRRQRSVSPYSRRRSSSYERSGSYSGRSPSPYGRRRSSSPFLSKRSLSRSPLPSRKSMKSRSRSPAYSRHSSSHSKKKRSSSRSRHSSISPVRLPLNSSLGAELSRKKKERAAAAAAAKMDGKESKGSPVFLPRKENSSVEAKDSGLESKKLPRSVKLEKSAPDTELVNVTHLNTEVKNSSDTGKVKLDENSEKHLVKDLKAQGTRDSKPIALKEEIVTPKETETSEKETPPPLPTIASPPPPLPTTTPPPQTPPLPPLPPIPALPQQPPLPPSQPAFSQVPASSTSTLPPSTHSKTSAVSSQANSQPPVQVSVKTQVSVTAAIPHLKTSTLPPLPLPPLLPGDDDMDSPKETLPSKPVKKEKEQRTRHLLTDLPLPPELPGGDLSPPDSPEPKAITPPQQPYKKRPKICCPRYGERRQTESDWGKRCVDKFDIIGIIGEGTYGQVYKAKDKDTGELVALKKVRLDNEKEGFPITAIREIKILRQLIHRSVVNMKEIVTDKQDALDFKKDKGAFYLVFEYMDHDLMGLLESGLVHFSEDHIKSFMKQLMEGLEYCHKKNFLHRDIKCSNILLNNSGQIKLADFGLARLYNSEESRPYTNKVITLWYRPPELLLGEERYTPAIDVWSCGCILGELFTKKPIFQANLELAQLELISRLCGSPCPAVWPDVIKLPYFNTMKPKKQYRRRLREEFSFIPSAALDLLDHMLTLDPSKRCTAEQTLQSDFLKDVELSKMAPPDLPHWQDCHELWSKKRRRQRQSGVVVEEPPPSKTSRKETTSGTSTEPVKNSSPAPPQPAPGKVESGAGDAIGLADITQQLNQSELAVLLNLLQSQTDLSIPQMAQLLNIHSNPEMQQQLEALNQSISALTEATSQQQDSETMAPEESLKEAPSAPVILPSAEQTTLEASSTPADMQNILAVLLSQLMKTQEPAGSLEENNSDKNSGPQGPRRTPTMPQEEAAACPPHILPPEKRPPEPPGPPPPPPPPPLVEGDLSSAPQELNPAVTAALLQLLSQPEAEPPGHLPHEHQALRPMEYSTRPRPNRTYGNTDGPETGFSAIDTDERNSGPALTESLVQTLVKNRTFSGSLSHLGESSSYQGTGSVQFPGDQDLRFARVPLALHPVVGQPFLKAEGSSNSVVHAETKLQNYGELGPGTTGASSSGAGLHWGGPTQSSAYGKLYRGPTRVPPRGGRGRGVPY
Human CDK12 wt/CycK, sequence (O75909 whole entry partner): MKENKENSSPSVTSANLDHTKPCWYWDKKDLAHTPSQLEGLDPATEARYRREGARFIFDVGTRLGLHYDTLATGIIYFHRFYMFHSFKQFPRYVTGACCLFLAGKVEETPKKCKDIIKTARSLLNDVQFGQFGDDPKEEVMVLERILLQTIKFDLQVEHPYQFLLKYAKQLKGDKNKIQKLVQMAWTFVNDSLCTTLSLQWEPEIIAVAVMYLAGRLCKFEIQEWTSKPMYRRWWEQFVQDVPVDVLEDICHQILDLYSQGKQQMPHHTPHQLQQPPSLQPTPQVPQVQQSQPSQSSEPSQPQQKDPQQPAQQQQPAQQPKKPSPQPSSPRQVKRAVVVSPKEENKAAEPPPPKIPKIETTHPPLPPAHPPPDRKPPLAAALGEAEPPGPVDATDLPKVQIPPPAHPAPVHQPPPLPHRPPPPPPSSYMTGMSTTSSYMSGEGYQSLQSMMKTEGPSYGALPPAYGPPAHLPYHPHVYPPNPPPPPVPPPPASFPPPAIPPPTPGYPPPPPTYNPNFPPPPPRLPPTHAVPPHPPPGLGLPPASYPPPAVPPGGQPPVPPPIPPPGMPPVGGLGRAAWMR

Regarding `c1ccc(-c2ccc(CNc3cc(C4CNC4)nc4c(C5CC5)cnn34)cc2)nc1` [PPA-058], the concentration for half-maximal inhibition (IC50) against Human CDK7/CycH/MAT1 was found to be 5.26 µM; at Human CDK12 wt/CycK (setting [3]) it was 0.204 µM; at Human CDK12 wt/CycK (setting [4]), 0.204 µM; with A673 cells [1] (setting [5]) it was 6.9 nM; in the experiment with A673 cells [1] (setting [6]) it was 6.9 nM. On Human CDK12 wt/CycK, the CDK7/CDK12 is reported as 25.8. Moreover, the “Ratio of Biochemical Potency:Cellular Potency” value (from here on “Ratio”) with A673 cells [1] came to 29.57. Besides, the “Cyclin K Degrader Activity (A673 potency shift + MLN4924)” value in the experiment on A673 cells [2] is given as “+++ (>5 fold change.)”.
Regarding `N#Cc1cnn2c(NCc3ccc(-c4ccccc4)cc3F)cc(NC[C@H]3CCNC[C@@H]3O)nc12` [PPA-070], the IC50 at Human CDK7/CycH/MAT1 came out at 0.562 µM; on Human CDK12 wt/CycK (setting [3]) it was 0.107 µM; on Human CDK12 wt/CycK (setting [4]), 0.107 µM; with A673 cells [1] (setting [5]) it was 5.3 nM; in the experiment with A673 cells [1] (setting [6]), 5.3 nM. The CDK7/CDK12 at Human CDK12 wt/CycK turned out to be 5.3. Moreover, the “Ratio” value with A673 cells [1] is given as 20.19. Moreover, the “Cyclin K Degrader Activity (A673 potency shift + MLN4924)” value with A673 cells [2] is reported as “+++ (>5 fold change.)”.
On to `O[C@H]1CNCC[C@@H]1CNc1cc(NCc2ccc(-c3nccs3)cc2)n2ncc(C3CC3)c2n1` [PPA-018], for which the IC50 came to 0.106 µM at Human CDK7/CycH/MAT1; 0.039 µM at Human CDK12 wt/CycK (setting [3]); 0.039 µM at Human CDK12 wt/CycK (setting [4]); 0.9 nM in the experiment with A673 cells [1] (setting [5]); 0.9 nM with A673 cells [1] (setting [6]). For the same molecule, the CDK7/CDK12 on Human CDK12 wt/CycK was determined as 2.7. Also, in the experiment on A673 cells [1], the “Ratio” value is 43.33. Moreover, the “Cyclin K Degrader Activity (A673 potency shift + MLN4924)” value in the experiment with A673 cells [2] was “+++ (>5 fold change.)”.
`c1ccc(-c2ccc(CNc3cc(NC4CNC4)nc4c(C5CC5)cnn34)cc2)nc1` [PPA-047]: the IC50 at Human CDK7/CycH/MAT1 turned out to be 0.892 µM; on Human CDK12 wt/CycK (setting [3]), 0.031 µM; on Human CDK12 wt/CycK (setting [4]) it was 0.031 µM; in the experiment with A673 cells [1] (setting [5]), 17.3 nM; with A673 cells [1] (setting [6]) it was 17.3 nM. The CDK7/CDK12 at Human CDK12 wt/CycK turned out to be 28.8. In addition, the “Ratio” value with A673 cells [1] came to 1.79. The “Cyclin K Degrader Activity (A673 potency shift + MLN4924)” value in the experiment on A673 cells [2] is “++ (>2 and ≤5 fold change.)”.
Regarding `N#Cc1cnn2c(NCc3ccc(-c4ccccn4)cc3)cc(N[C@H]3CCNC3)nc12` [PPA-086], the IC50 against Human CDK7/CycH/MAT1 was determined as 0.417 µM; at Human CDK12 wt/CycK (setting [3]), 0.011 µM; at Human CDK12 wt/CycK (setting [4]) it was 0.011 µM; in the experiment with A673 cells [1] (setting [5]) it was 0.9 nM; in the experiment on A673 cells [1] (setting [6]) it was 0.9 nM. On Human CDK12 wt/CycK, the CDK7/CDK12 was 37.9. In addition, the “Ratio” value in the experiment on A673 cells [1] is 12.22. Moreover, the “Cyclin K Degrader Activity (A673 potency shift + MLN4924)” value in the experiment on A673 cells [2] is “+++ (>5 fold change.)”.
For `c1cnn(-c2ccc(CNc3cc(N[C@H]4CCNC4)nc4c(C5CC5)cnn34)cc2)c1` [PPA-091], the IC50 against Human CDK7/CycH/MAT1 came to 3.07 µM; at Human CDK12 wt/CycK (setting [3]) it was 0.382 µM; on Human CDK12 wt/CycK (setting [4]), 0.382 µM; in the experiment with A673 cells [1] (setting [5]), 7.6 nM; with A673 cells [1] (setting [6]), 10.3 nM. For the same molecule, at Human CDK12 wt/CycK, the CDK7/CDK12 amounted to 8.0. In addition, in the experiment with A673 cells [1], the “Ratio” value amounted to 50.26. Also, the “Cyclin K Degrader Activity (A673 potency shift + MLN4924)” value with A673 cells [2] is “+++ (>5 fold change.)”.
With `c1cnc(-c2ccc(CNc3cc(N[C@H]4CCNC4)nc4c(C5CC5)cnn34)cc2)nc1` [PPA-090], the IC50 on Human CDK7/CycH/MAT1 amounted to 0.418 µM; at Human CDK12 wt/CycK (setting [3]) it was 0.023 µM; on Human CDK12 wt/CycK (setting [4]), 0.023 µM; in the experiment on A673 cells [1] (setting [5]) it was 4.7 nM; in the experiment with A673 cells [1] (setting [6]) it was 5.2 nM. Besides, on Human CDK12 wt/CycK, the CDK7/CDK12 came to 18.2. In addition, the “Ratio” value in the experiment on A673 cells [1] was 4.89. Further, the “Cyclin K Degrader Activity (A673 potency shift + MLN4924)” value with A673 cells [2] was “+++ (>5 fold change.)”.
As for `c1ccc(-c2ccc(CNc3cc(O[C@@H]4CCNC4)nc4c(C5CC5)cnn34)cc2)nc1` [PPA-060], the IC50 against Human CDK7/CycH/MAT1 was found to be 2.87 µM; on Human CDK12 wt/CycK (setting [3]), 0.077 µM; at Human CDK12 wt/CycK (setting [4]), 0.077 µM; in the experiment with A673 cells [1] (setting [5]), 2.9 nM; with A673 cells [1] (setting [6]), 2.9 nM. Besides, the CDK7/CDK12 on Human CDK12 wt/CycK was 37.3. Also, the “Ratio” value in the experiment with A673 cells [1] is reported as 26.55. The “Cyclin K Degrader Activity (A673 potency shift + MLN4924)” value with A673 cells [2] was “+++ (>5 fold change.)”.
`CCc1cnn2c(NCc3ccc(-c4ccccc4)cc3F)cc(NC[C@H]3CCNC[C@@H]3O)nc12` [PPA-069]: the IC50 against Human CDK7/CycH/MAT1 amounted to 0.267 µM; at Human CDK12 wt/CycK (setting [3]) it was 0.122 µM; at Human CDK12 wt/CycK (setting [4]), 0.122 µM; with A673 cells [1] (setting [5]) it was 10.5 nM; in the experiment on A673 cells [1] (setting [6]), 10.5 nM. Moreover, the CDK7/CDK12 on Human CDK12 wt/CycK amounted to 2.2. Besides, in the experiment with A673 cells [1], the “Ratio” value came out at 11.62. Also, the “Cyclin K Degrader Activity (A673 potency shift + MLN4924)” value with A673 cells [2] is “++ (>2 and ≤5 fold change.)”.
